Laboratory results reported in the supplement of paper PMC10307832.

Legend:
Assay in all cases: relative viability (nuclei count vs DMSO), 5 days (fraction); higher = more cells survive
Mirin + Phenformin = compound: N=C1NC(=O)/C(=C/c2ccc(O)cc2)S1 [Mirin] + N=C(N)NC(=N)NCCc1ccccc1 [Phenformin] (partner 250 µM)
Summary of the method: (§1)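 The day after seeding in 1536-well plates, lung cancer cell lines were treated by pin tool with a single drug, or with a fixed anchor-drug dose together with five library-drug doses (not always all listed) in √10 steps. After 5 days, a combined fix-and-stain solution (final 0.05% Triton X-100, 1% formaldehyde, 1 ug/ml Hoechst) was added. Nuclei counted on 4× images gave relative viability as treated counts over vehicle counts, reported as the median of duplicate plates.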

Mirin + Lapatinib = compound: N=C1NC(=O)/C(=C/c2ccc(O)cc2)S1 [Mirin] + CS(=O)(=O)CCNCc1ccc(-c2ccc3ncnc(Nc4ccc(OCc5cccc(F)c5)c(Cl)c4)c3c2)o1 [Lapatinib] (partner 2 µM)
Summary of the method: as §1

[1] = compound: CCn1c(-c2nonc2N)nc2cnc(Oc3cccc(NC(=O)c4ccc(OCCN5CCOCC5)cc4)c3)cc21 + Cc1nc(Nc2ncc(C(=O)Nc3c(C)cccc3Cl)s2)cc(N2CCN(CCO)CC2)n1 [Dasatinib] (partner 0.075 µM)
Summary of the method: as §1

[2] = compound: CCC1=CN=CN=C1N2CCN(CC2)CC3=NC4=C(N3)C=C(C=C4)C(F)(F)F + Cc1nc(Nc2ncc(C(=O)Nc3c(C)cccc3Cl)s2)cc(N2CCN(CCO)CC2)n1 [Dasatinib] (partner 0.075 µM)
Summary of the method: as §1

Cell Line | relative viability (Mirin + Phenformin; first compound 0.25 µM) | relative viability (Mirin + Phenformin; first compound 0.7906 µM) | relative viability (Mirin + Phenformin; first compound 2.5 µM) | relative viability (Mirin + Phenformin; first compound 7.906 µM) | relative viability (Mirin + Phenformin; first compound 25 µM) | relative viability (Mirin + Lapatinib; first compound 0.25 µM) | relative viability (Mirin + Lapatinib; first compound 0.7906 µM) | relative viability (Mirin + Lapatinib; first compound 2.5 µM) | relative viability (Mirin + Lapatinib; first compound 7.906 µM) | relative viability (Mirin + Lapatinib; first compound 25 µM) | relative viability ([1]; first compound 0.04 µM) | relative viability ([1]; first compound 0.1265 µM) | relative viability ([1]; first compound 0.4 µM) | relative viability ([1]; first compound 1.265 µM) | relative viability ([1]; first compound 4 µM) | relative viability ([2]; first compound 0.04 µM) | relative viability ([2]; first compound 0.1265 µM) | relative viability ([2]; first compound 0.4 µM) | relative viability ([2]; first compound 1.265 µM) | relative viability ([2]; first compound 4 µM)
201T | 0.463 | 0.494 | 0.454 | 0.463 | 0.568 | 0.98 | 0.964 | 1.01 | 1.09 | 1.08 | 0.644 | 0.682 | 0.443 | 0.588 | 0.506 | 0.527 | 0.565 | 0.559 | 0.568 | 0.541
PC-3 [JPC-3] | 0.462 | 0.48 | 0.513 | 0.513 | 0.522 | 0.52 | 0.469 | 0.462 | 0.455 | 0.491 | 0.981 | 0.902 | 0.605 | 0.728 | 0.648 | 0.978 | 0.935 | 0.889 | 1 | 0.969
NCI-H1650 | 0.39 | 0.456 | 0.435 | 0.423 | 0.295 | 0.774 | 0.501 | 0.891 | 0.708 | 0.465 | 0.324 | 0.36 | 0.371 | 0.398 | 0.363 | 0.346 | 0.299 | 0.333 | – | 0.309
NCI-H838 | 0.654 | 0.292 | 0.634 | 0.626 | 0.468 | 1.15 | 0.454 | 1.07 | 0.898 | 0.658 | 0.314 | 0.192 | 0.199 | 0.208 | 0.183 | 0.295 | 0.237 | 0.28 | 0.26 | 0.289
NCI-H1792 | 0.351 | 0.369 | 0.306 | 0.245 | 0.264 | 0.891 | 0.814 | 0.97 | 0.829 | 0.942 | 0.954 | 0.514 | – | 0.405 | 0.488 | 1 | 0.754 | 0.515 | 0.685 | 0.602
COR-L23 | 0.465 | 0.46 | 0.45 | 0.469 | 0.481 | 0.796 | 1.08 | 0.907 | 0.999 | 0.914 | 0.47 | 0.336 | 0.173 | 0.164 | 0.121 | 0.536 | 0.477 | 0.502 | 0.481 | 0.484
HOP-62 | 0.608 | 0.707 | 0.726 | 0.596 | 0.723 | 1.05 | 1.16 | 1.01 | – | 1.23 | 0.511 | 0.344 | 0.179 | 0.172 | 0.17 | 0.589 | 0.584 | 0.539 | 0.626 | 0.653
NCI-H1915 | 0.353 | – | 0.364 | 0.356 | 0.386 | 0.95 | – | 0.997 | 0.853 | 0.826 | 0.33 | 0.3 | 0.236 | 0.186 | 0.188 | 0.276 | 0.318 | 0.283 | 0.298 | 0.319
BEN | 0.255 | 0.288 | 0.266 | 0.248 | 0.273 | 0.507 | 0.942 | 0.721 | 0.656 | 0.457 | 0.276 | 0.238 | 0.174 | 0.186 | 0.232 | 0.241 | 0.261 | 0.303 | 0.335 | 0.288
NCI-H1437 | 0.31 | 0.333 | 0.318 | 0.3 | 0.309 | 0.912 | 0.741 | 0.776 | 0.762 | 0.394 | 0.629 | 0.373 | 0.148 | 0.363 | 0.35 | 0.339 | 0.369 | 0.386 | 0.328 | 0.22
EMC-BAC-2 | 0.57 | 0.57 | 0.559 | 0.401 | 0.49 | 0.955 | 0.902 | 0.954 | 0.918 | 0.88 | 0.305 | 0.244 | 0.134 | 0.161 | 0.154 | 0.358 | 0.354 | 0.322 | – | 0.289
NCI-H2087 | 0.494 | 0.559 | 0.454 | 0.429 | 0.613 | 1.09 | 1.07 | 0.91 | 1.12 | 1.14 | 0.866 | 0.673 | 0.544 | 0.558 | 0.63 | 0.729 | 0.809 | 0.529 | 0.508 | 0.598
NCI-H650 | 0.436 | 0.384 | 0.453 | – | 0.546 | 0.943 | – | 0.902 | – | 1.02 | 0.4 | 0.317 | 0.216 | 0.248 | 0.276 | 0.4 | 0.413 | 0.456 | 0.441 | 0.494
LXF-289 | 0.543 | 0.589 | 0.546 | 0.511 | 0.548 | 0.906 | 1.01 | 0.91 | 1.04 | 1.04 | 0.158 | 0.111 | 0.0564 | 0.0848 | 0.0678 | 0.161 | 0.21 | 0.242 | 0.191 | 0.209
LOU-NH91 | 0.718 | 0.671 | 0.703 | 0.668 | 0.856 | 0.786 | – | 0.782 | 0.774 | 0.702 | 0.524 | 0.454 | 0.312 | 0.273 | 0.304 | 0.477 | 0.466 | 0.485 | 0.533 | 0.568
NCI-H2347 | 0.334 | 0.328 | 0.52 | 0.453 | 0.552 | 0.915 | 0.944 | 0.981 | 0.956 | 0.966 | 0.402 | 0.436 | 0.286 | 0.374 | 0.349 | 0.257 | 0.4 | 0.281 | 0.351 | 0.339
